“And” between values parts separate entries of the source, which are not always exact repeats. Identical values can stand only once.
What was measured:
[1] = system: patient derived pancreatic tumor fragment; experiment: 10 patient derived pancreatic tumor models in nude mice; type: in vivo, human
Method: Combination with MEK inhibitor N-((S)-2,3-dihydroxy-propyl)-3-(2-fluoro-4-iodo-phenylamino)-isonicotinamide in 10 patient derived pancreatic tumor models:
Method: Female NMRI nude mice (6-8 week old) where subcutaneously implanted with a patient derived pancreatic tumor fragment. Animals were divided into treatments groups (ten animals in one group) after the tumors were established. Respective groups were administered orally with the 3-(1-{3-[5-(1-methyl-piperidin-4-ylmethoxy)-pyrimidin-2-yl]-benzyl}-6-oxo -1,6-dihydro-pyridazin-3-yl)-benzonitrile hydrochloride hydrate (100 mg/kg) or N-((S)-2,3-dihydroxy-propyl)-3-(2-fluoro-4-iodo-phenylamino)-isonicotinamide (100 mg/kg, MTD) for 5 days on and 2 days off in monotherapy or in combination. At the end of treatment TC values were calculated and tumor regrowth was observed. Statistical analysis has been done with one way ANOVO. […] All treatments were well tolerated.

[2] = system: human KP-4 pancreatic tumor cells; experiment: human KP-4 pancreatic tumor xenograft model in nude mice; type: in vivo; details: female BalBc nude mice, s.c. KP-4 tumors, 5 days on and 2 days off, end of treatment
Method: Method: Female BalBc nude mice (6-8 week old) where subcutaneously injected with human KP-4 pancreatic tumor cells and were divided into treatment groups (ten animals in one group) after the tumors were established.
Respective groups were administered orally with the 3-(1-{3-[5-(1-methyl-piperidin-4-ylmethoxy)-pyrimidin-2-yl]-benzyl}-6-oxo-1,6-dihydro-pyridazin -3-yl)-benzonitrile hydrochloride hydrate (100 mg/kg) or N-((S)-2,3-dihydroxy-propyl)-3-(2-fluoro-4-iodo-phenylamino)-isonicotinamide (50 mg/kg) for 5 days on and 2 days off in monotherapy or in combination. […] Statistical analysis has been done with one way ANOVA.

SMILES	TC values ([1]; female NMRI nude mice, monotherapy 100 mg/kg (MTD) orally, 5 days on and 2 days off, end of treatment, all 10 models) [%]	models with anti-tumor activity ([1]; female NMRI nude mice, monotherapy 100 mg/kg orally, 5 days on and 2 days off, out of 10 models)	TC value ([2]; monotherapy 50 mg/kg orally) [%]	TC values ([1]; female NMRI nude mice; monotherapy 100 mg/kg orally, 5 days on and 2 days off; end of treatment; the models with anti-tumor activity; hydrochloride hydrate))	TC value ([2]; monotherapy 100 mg/kg orally) [%]
O=C(NC[C@H](O)CO)c1ccncc1Nc1ccc(I)cc1F [N-((S)-2,3-dihydroxy-propyl)-3-(2-fluoro-4-iodo-phenylamino)-isonicotinamide]	< 55	10	42		
CN1CCC(COc2cnc(-c3cccc(Cn4nc(-c5cccc(C#N)c5)ccc4=O)c3)nc2)CC1.Cl.O [3-(1-{3-[5-(1-methyl-piperidin-4-ylmethoxy)-pyrimidin-2-yl]-benzyl}-6-oxo-1,6-dihydro-pyridazin-3-yl)-benzonitrile hydrochloride hydrate]				43% and 50%	35

From US20150297594A1, “Combination of a 6-oxo-1,6-dihydro-pyridazine derivative having anti-cancer activity with a MEK inhibitor” (MERCK PATENT GMBH, priority 2012, published 2015)
